Laboratory results taken from US20040039048A1, “Therapy with cannabinoid compounds for the treatment of brain tumors” (priority 2000, published 2004).
“Also recorded” adds a separate entry of the source. Where two headings read alike, the source gives them in different places.

Legend:
[1] = tested on: C6 glioblastoma cells; assay: Viability of C6 glioblastoma culture cells (MTT method); format: cell-based; details: for IC50: after 5 days of exposure, n=4, read-out: concentration reducing viability of C6 glioblastoma by 50%; for prevention of cell death induced by THC, the two antagonists SR141716 and SR144528 jointly added: 1 μM SR141716 and 1 μM SR144528, 5 days
Description: Experiments were conducted with the object of obtaining a pharmacological characterization of cannabinoid-induced death of C6 glioblastoma culture cells.
C6 glioblastoma cells were cultivated at 37° C. and 5% CO2 in F-12 medium supplemented with calf fetal serum at 10%. 24 h before the start of the experiment the cells were transferred to an F-12 medium free of serum and supplemented with insulin (5 μg/ml), transferrine (10 μg/ml), sodium selenite (5 μg/ml) and delipidized and dialyzed BSA (10 mg/ml). The medium was renovated every 48 h and the cell viability was determined by the MTT method (Sanchez, C., Galve-Roperh, I., Canova, C., Brachet, P. & Guzman, M., op cit.).

[2] = tested on: C6 glioblastoma cells; assay: C6 glioblastoma cells inoculated subcutaneously in immunodeficient RAG-2-/- mice; tumor size; format: in vivo; details: 500 μg of THC or 50 μg of WIN-55,212-2 per day for 7 days, caliper, P<0.01 Student t test
Description: In order to discern whether the antiproliferative action of cannabinoids was due to a direct effect on the tumoral cells or to an indirect effect mediated by an immune response, C6 glioblastoma cells were inoculated subcutaneously in mice with a deficiency of recombinase RAG-2 (RAG-2^-/-), which lack mature T and B lymphocytes (Shinkai et al. Cell 68, 855-867, 1992).
Tumors were induced in RAG-2^-/- […] by subcutaneous inoculation of 5×10^6 C6 glioblastoma cells in 100 μl of PBS supplemented with 0.1% glucose. […] The tumor sizes were measured by a caliper and their volume calculated according to (4π/3)×(width/2)^2×(length/2). […] In FIG. 4b are shown examples of tumor bearing mice and tumors dissected after treatment with or without cannabinoids for 7 days.

[3] = tested on: C6 glioblastoma cells; assay: C6 glioblastoma cells inoculated in rat brain; survival and magnetic resonance; format: in vivo, Wistar rats
Description: C6 glioblastoma cells were directly inoculated in the brain of Wistar rats and the tumors viewed by magnetic resonance. […] To evaluate the antitumoral potential of the cannabinoids, 12 days after inoculating the cells a group of animals was administered THC or WIN-55, 212-2 for 7 days through a cannula located at the site of inoculation.
Male Wistar rats (250-300 g in body mass) were anaesthetized with 3% isofluorane in an oxygen mixture (0.8 l/min) and protoxide (0.4 l/min). 5×10^8 C6 glioblastoma cells were prepared in 100 μl of saline solution buffered with phosphate (PBS) and supplemented with 0.1% glucose, and stereotaxically injected in the frontal parietal lobule of the right hemisphere (4 mm to the right of bregma, 4.5 mm depth from the cranium) (Izquierdo, M et al., Gene Ther. 2, 66-69, 1995). The rats received dexamethasone (2 mg/l) and tetracycline (75 mg/kg of body weight) in water for 3 days before and 7 days after inoculation of the cells. A thorough monitoring of the tumors was performed by magnetic resonance with the methods described by other authors (Izquierdo, M et al., op cit; Cortés, M. L., de Felipe, P., Martin, V. Hughes, M. A. & Izquierdo, M. Gene Ther. 5, 1499-1507, 1998).
The administration of cannabinoids to rats began 12 days after inoculation of the cells. At this time the average size of the tumors was 70 mm^3 (interval 25-100 mm^3) as estimated by magnetic resonance (Izquierdo, M et al., op cit; Cortés, de Felipe, Martin, Hughes & Izquierdo, M, op cit.). Cannabinoids were administered by a cannula placed at the place of inoculation of the tumor and attached to the cranium by dental cement; a small stainless steel screw anchored the cannula and the dental cement. The cannula was subcutaneously connected by a catheter to an osmotic mini-pump (Alzet 2001) which operated at a flow of 1 μl/h for 7 days. The osmotic pump was filled with 500-2500 μg of THC or 50-250 μg of WIN-55,212-2 in 200 μl of PBS supplemented with 5 mg/l of bovine serum albumin (BSA), delipidized and dialyzed.

[4] = fraction of treated animals, 7 days through cannula from day 12

| Molecule | IC50 [1] [nM] | IC50 ([1]; 120 h) [nM] | prevention of cell death induced by THC, the two antagonists SR141716 and SR144528 jointly added ([1]; 1 μM THC) | size of tumors versus control animals [2] | also measured |
| --- | --- | --- | --- | --- | --- |
| CCCCCCC(C)(C)c1ccc([C@@H]2C[C@H](O)CC[C@H]2CCCO)c(O)c1 [CP-55,940] | 45 |  |  |  |  |
| CCCCCCC(C)(C)c1cc(O)c2c(c1)OC(C)(C)[C@@H]1CC=C(CO)C[C@@H]21 [HU-210] |  | 10 |  |  |  |
| Cc1c(C(=O)NN2CCCCC2)nn(-c2ccc(Cl)cc2Cl)c1-c1ccc(Cl)cc1 [SR141716] |  |  | prevented |  | prevention of cell death induced by THC, antagonist added separately ([1]; 1 μM THC, 1 μM antagonist, 5 days): Neither |
| CCCCCc1cc(O)c2c(c1)OC(C)(C)[C@@H]1CCC(C)=C[C@@H]21 [THC, Δ^9-tetrahydrocannabinol] |  | 480 |  | extraordinarily smaller; also recorded: much smaller | induction of death of C6 glioblastoma cells ([1]; 1 μM THC, 5 days, n=6): capable of inducing the death |
| Cc1c(C(=O)c2cccc3ccccc23)c2cccc3c2n1[C@H](CN1CCOCC1)CO3 [WIN-55,212-2] | 20 |  |  | much smaller | survival time ([3]; days after inoculation, in the responding animals, cannabinoid for 7 days through cannula at site of inoculation from day 12, untreated died 12-18 days): 19 to 43 days; animals with increased survival time [3, 4]: 4/15; animals with tumor completely eradicated [3, 4]: 5/15; size of tumors versus control animals ([2]; 212-2): extraordinarily smaller |
| SR144528 |  |  | prevented |  |  |
